Experiments:
[1] = tested on: TGF-β activated NIH3T3 cells; experiment: ROS inhibition in TGF-β activated NIH3T3 cells (Fluorometric Hydrogen Peroxide Assay Kit); assay type: cell-based, mouse
Method: Based on literature and Chinese medicine pharmacology, 10 anti-fibrosis TCMs were selected to screen the ROS inhibition effects on TGF-β activated NIH3T3 cells. NIH3T3 cells were pre-stimulated with 10 ng/mL TGF-β for 24 h and 2×10^3 cells/well were seeded in a 96-well black plate. Then, the cells were treated with different TCMs. After these drugs were added, the cells were further cultured for 48 h. Then the concentration of ROS was determined with the Fluorometric Hydrogen Peroxide Assay Kit according to the manufacturer's instructions. The fluorescence intensity measured by using a fluorescence microplate reader (FLx800, Biotek Instrument Inc., Winooski, VT, USA) at excitation and emission wavelengths of 485 and 530 nm, respectively.

NIH3T3 cells = assay type: cell-based, mouse; conditions: different concentrations, within 48 hours
Method: 1.4.4. Cytotoxicity of Puerarin. The addition of puerarin and nanoPue to NIH3T3 cells was the same as the ROS assay. After 48 h of incubation, the culture medium was discarded and the cell layers were washed twice with PBS. Then 100 μL culture medium and 10 μL MTT solution (5 mg/mL) were added and incubated for 4 h at 37° C. After the supernatant was removed, 150 μL DMSO was added and OD value was determined at 492 nm by using a multidetection microplate reader (Plate CHAMELEONTM V-Hidex). The cell viability rate of each concentration was calculated according to formula (1).
Cell viability %=(ODdosing group/ODcontrol group)×100% (1)

[2] = literature statement; cited from earlier work

Substance: Puerarin
- ROS inhibition activity at different concentrations ([1]; TGF-β activated NIH3T3 cells, different concentrations): concentration-dependent ROS downregulation pattern
- amount of ROS in TGF-β activated NIH3T3 cells ([1]; screen of ten natural compounds, 15 μg/mL, 48 h, compared with other natural compounds): significantly reduced
- cytotoxicity in NIH3T3 cells (cell viability, MTT) (NIH3T3 cells): no cytotoxicity
- solubility [2]: poorly soluble

From patent US20220193103A1, “NANO-PUERARIN REGULATES TUMOR MICROENVIRONMENT AND FACILITATES CHEMO- AND IMMUNOTHERAPY IN MURINE TRIPLE NEGATIVE BREAST CANCER MODEL” (The University of North Carolina at Chapel Hill, priority 2019, published 2022)
